Our source for the EC50 and IC50 values is patent US9365541B2, “Compounds for use in the treatment of parasitic diseases” (IRBM—SCIENCE PARK S.P.A., priority 2012, dated 2016).

The subject of assay [1] is Plasmodium falciparum 3D7. Kind of assay: P. falciparum growth inhibition assay (Pf-LDH). It is filed as cell-based. The following applies: Plasmodium falciparum, Erythrocyte; P. falciparum 3D7 infected erythrocytes, 72 h incubation, PfLDH readout. A digest of the protocol: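 P. falciparum 3D7 (chloroquine-sensitive) at 0.25% parasitemia and 2% hematocrit was incubated with compound for 72 h at 37° C under 4% CO2/3% O2/93% N2. After freeze-thaw, PfLDH activity was read at 650 nm with lactate/APAD/NBT/diaphorase mix (pH 8.0).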

A further assay has as its target T1, human HDAC1 (Homo sapiens, UniProt Q13547).
T1 construct: made in house; host or cells: HeLa (ATCC CCL-2), mammalian cells
Kind of assay: Homo sapiens HDAC1 inhibition assay (Fluor-de-Lys, enzymatic). Format: biochemical. The conditions noted are these: human HDAC enzymatic assay; read-out: hHDAC IC50. A digest of the protocol: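 Product developed with trypsin developer containing 2 μM TSA to stop the reaction; fluorescence measures deacetylase activity, inversely related to inhibition.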

Where only a bound is given, the exact number is not on record here.

What is called EC50 is the concentration needed to bring the measured effect to its halfway point. The term IC50 denotes the concentration that gives 50% inhibition.

T1 sequence (Q13547 whole entry): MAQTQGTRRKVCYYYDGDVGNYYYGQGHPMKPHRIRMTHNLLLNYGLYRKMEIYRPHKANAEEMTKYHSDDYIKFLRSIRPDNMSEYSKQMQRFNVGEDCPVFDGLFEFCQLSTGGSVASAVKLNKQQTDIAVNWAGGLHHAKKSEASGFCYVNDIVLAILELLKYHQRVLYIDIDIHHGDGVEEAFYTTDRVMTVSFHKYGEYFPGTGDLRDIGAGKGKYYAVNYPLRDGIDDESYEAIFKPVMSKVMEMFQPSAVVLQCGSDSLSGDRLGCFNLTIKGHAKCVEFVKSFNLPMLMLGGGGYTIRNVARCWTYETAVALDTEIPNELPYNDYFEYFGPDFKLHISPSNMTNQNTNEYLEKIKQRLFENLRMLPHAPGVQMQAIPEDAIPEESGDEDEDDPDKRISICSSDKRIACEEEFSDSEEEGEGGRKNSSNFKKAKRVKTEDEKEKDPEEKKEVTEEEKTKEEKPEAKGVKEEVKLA

Consider `CNC(=O)CCCCC[C@H](NC(=O)c1nnc(C)o1)c1ncc(-c2ccc3ccccc3c2)[nH]1` [Entry 203, (S)-5-methyl-N-(7-(methylamino)-1-(5-(naphthalen-2-yl)-1H-imidazol-2-yl)-7-oxoheptyl)-1,3,4-oxadiazole-2-carboxamide], for which the EC50 in assay [1] was in the range of 1 to 5 µM. Besides, the IC50 on human HDAC1 is greater than 5 µM.

For `CNC(=O)CCCCC[C@H](NC(=O)Cc1cnccn1)c1ncc(-c2cc3ccccc3nc2OC)[nH]1` [Entry 76], in assay [1], the concentration for a half-maximal effect (EC50) was 1 to 5 µM. In addition, the IC50 at human HDAC1 was 1 to 5 µM.

With `CNC(=O)CCCCC[C@H](NC(=O)Cc1ncccn1)c1ncc(-c2ccc3ccncc3c2)[nH]1` [Entry 207], the EC50 in assay [1] fell in the range of 1 to 5 µM. Moreover, on human HDAC1, the 50% inhibitory concentration (IC50) is greater than 5 µM.

With `CNC(=O)CCCCC[C@H](NC(=O)c1cnsc1)c1ncc(-c2ccc(-c3ccn(C)n3)cc2)o1` [Entry 226, (S)-N-(1-(5-(4-(1-methyl-1H-pyrazol-3-yl)phenyl)oxazol-2-yl)-7-(methylamino)-7-oxoheptyl)isothiazole-4-carboxamide], in assay [1], the EC50 is 1 to 5 µM. On human HDAC1, the IC50 is greater than 5 µM.

On to `CNC(=O)CCCCC[C@H](NC(=O)c1ccc(N2CC(=O)NC2=O)cc1)c1ncc(-c2ccc(-n3cccn3)cc2)[nH]1` [Entry 195, (S)-N-(1-(5-(4-(1H-pyrazol-1-yl)phenyl)-1H-imidazol-2-yl)-7-(methylamino)-7-oxoheptyl)-4-(2,4-dioxoimidazolidin-1-yl)benzamide], for which, in assay [1], the concentration for a half-maximal effect (EC50) is 1 to 5 µM. Also, the half-inhibitory concentration (IC50) on human HDAC1 is greater than 5 µM.

`CNC(=O)CCCCC[C@H](NC(=O)Cc1ccccn1)c1ncc(-c2cc3ccccc3nc2OC)[nH]1` [Entry 106] yielded a 50% effective concentration (EC50) in assay [1] greater than 5 µM. Moreover, the IC50 on human HDAC1 was in the range of 1 to 5 µM.

For the compound `CNC(=O)CCCCC[C@H](NC(=O)C1(C)CCCO1)c1ncc(-c2ccc(-c3ccn(C)n3)cc2)[nH]1` (stereo partly drawn) [Entry 123, 2-methyl-N-((S)-1-(5-(4-(1-methyl-1H-pyrazol-3-yl)phenyl)-1H-imidazol-2-yl)-7-(methylamino)-7-oxoheptyl)tetra-hydrofuran-2-carboxamide], the EC50 in assay [1] was greater than 5 µM. Besides, the IC50 on human HDAC1 was greater than 5 µM.

Take `CNC(=O)CCCCC[C@H](NC(=O)c1cncs1)c1ncc(-c2ccc(-c3cccnc3)cc2)[nH]1` [Entry 196, (S)-N-(7-(methylamino)-7-oxo-1-(5-(4-(pyridin-3-yl)phenyl)-1H-imidazol-2-yl)heptyl)thiazole-5-carboxamide]: in assay [1], the EC50 lay in the range of 1 to 5 µM. The IC50 on human HDAC1 lay in the range of 1 to 5 µM.

In turn, `CNC(=O)CCCCC[C@H](NC(=O)C12CCN(CC1)CC2)c1ncc(-c2cc3ccccc3nc2OC)[nH]1` [Entry 177, (S)-N-(1-(5-(2-methoxyquinolin-3-yl)-1H-imidazol-2-yl)-7-(methylamino)-7-oxo-heptyl)quinuclidine-4-carboxamide] returned an EC50 in assay [1] of less than 1 µM. In addition, the IC50 at human HDAC1 was less than 1 µM.

The compound `CNC(=O)CCCCC[C@H](NC(=O)Cn1c(=O)ncc2ccccc21)c1ncc(-c2ccc3ccccc3c2)[nH]1` [Entry 151] showed an EC50 in assay [1] of 1 to 5 µM. In addition, the half-maximal inhibitory concentration (IC50) on human HDAC1 is less than 1 µM.

In assay [1], `CNC(=O)CCCCC[C@H](NC(=O)c1cc(C)n(-c2ccccc2)n1)c1ncc(-c2ccc3ccccc3c2)[nH]1` [Entry 82, (S)-5-methyl-N-(7-(methylamino)-1-(5-(naphthalen-2-yl)-1H-imidazol-2-yl)-7-oxoheptyl)-1-phenyl-1H-pyrazole-3-carboxamide] had an EC50 greater than 5 µM. Moreover, the IC50 on human HDAC1 was greater than 5 µM.

On to `CNC(=O)CCCCC[C@H](NC(=O)Cn1cncn1)c1ncc(-c2ccc(-n3cccn3)cc2)[nH]1` [Entry 11, (S)-7-(2-(1H-1,2,4-triazol-1-yl)acetamido)-7-(5-(4-(1H-pyrazol-1-yl)phenyl)-1H-imidazol-2-yl)-N-methylheptanamide], for which the EC50 in assay [1] was greater than 5 µM. At human HDAC1, the half-inhibitory concentration (IC50) was greater than 5 µM.

Compound `CNC(=O)CCCCC[C@H](NC(=O)c1cncs1)c1ncc(-c2cccc3c2OCCO3)[nH]1` [Entry 79] yielded a half-maximal effective concentration (EC50) in assay [1] greater than 5 µM. Also, at human HDAC1, the IC50 lay in the range of 1 to 5 µM.

As to `CNC(=O)CCCCC[C@H](NC(=O)C1(C)CCCO1)c1ncc(-c2ccc3ccncc3c2)[nH]1` (stereo partly drawn) [Entry 121, N-((S)-1-(5-(isoquinolin-7-yl)-1H-imidazol-2-yl)-7-(methylamino)-7-oxoheptyl)-2-methyltetrahydrofuran-2-carboxamide], the half-maximal effective concentration (EC50) in assay [1] was greater than 5 µM. Further, the IC50 at human HDAC1 was greater than 5 µM.

In assay [1], `CNC(=O)CCCCC[C@H](NC(=O)C1CN(C)C1)c1ncc(-c2ccc3ccccc3c2)[nH]1` [Entry 26] registered an EC50 of 1 to 5 µM. The IC50 on human HDAC1 was less than 1 µM.

As to `CNC(=O)CCCCC[C@H](NC(=O)Cc1c(C)[nH]c2ccc(OC)cc12)c1nnc(-c2ccc3ccccc3c2)[nH]1` [Entry 148, (S)-7-(2-(5-methoxy-2-methyl-1H-indol-3-yl)acetamido)-N-methyl-7-(5-(naphthalen-2-yl)-4H-1,2,4-triazol-3-yl)heptanamide], in assay [1], the half-maximal effective concentration (EC50) is less than 1 µM. Also, the IC50 at human HDAC1 was less than 1 µM.

`CNC(=O)CCCCC[C@H](NC(=O)CC1=CSC2=NCCCN12)c1ncc(-c2ccc(-n3cccn3)cc2)[nH]1` [Entry 39, (S)-7-(5-(4-(1H-pyrazol-1-yl)phenyl)-1H-imidazol-2-yl)-7-(2-(6,7-dihydro-5H-thiazolo[3,2-a]pyrimidin-3-yl)acetamido)-N-methylheptanamide] came in with an EC50 in assay [1] of 1 to 5 µM. Besides, the IC50 at human HDAC1 is 1 to 5 µM.

On to `CNC(=O)CCCCC[C@H](NC(=O)c1cnn(C(C)C)c1)c1ncc(-c2ccc3ccncc3c2)[nH]1` [Entry 90, (S)-1-isopropyl-N-(1-(5-(isoquinolin-7-yl)-1H-imidazol-2-yl)-7-(methylamino)-7-oxoheptyl)-1H-pyrazole-4-carboxamide], for which the concentration for a half-maximal effect (EC50) in assay [1] is less than 1 µM. Besides, at human HDAC1, the IC50 is less than 1 µM.

Consider `CNC(=O)CCCCC[C@H](NC(=O)c1cncs1)c1ncc(-c2ccc(-c3ccccc3)cc2)[nH]1` [Entry 108, (S)-N-(1-(5-([1,1′-biphenyl]-4-yl)-1H-imidazol-2-yl)-7-(methylamino)-7-oxoheptyl)thiazole-5-carboxamide], for which the EC50 in assay [1] was greater than 5 µM. Moreover, the IC50 on human HDAC1 is greater than 5 µM.

In assay [1], `CCOc1cccc2cc(-c3cnc([C@H](CCCCCC(=O)NC)NC(=O)c4cncs4)[nH]3)ccc12` [Entry 25, (S)-N-(1-(5-(5-ethoxynaphthalen-2-yl)-1H-imidazol-2-yl)-7-(methylamino)-7-oxoheptyl)thiazole-5-carboxamide] returned a 50% effective concentration (EC50) of less than 1 µM. In addition, the IC50 on human HDAC1 was in the range of 1 to 5 µM.

With `CNC(=O)CCCCC[C@H](NC(=O)c1cncs1)c1ncc(-c2ccc3[nH]ccc3c2)[nH]1` [Entry 24, (S)-N-(1-(5-(1H-indol-5-yl)-1H-imidazol-2-yl)-7-(methylamino)-7-oxoheptyl)thiazole-5-carboxamide], in assay [1], the 50% effective concentration (EC50) is less than 1 µM. In addition, the IC50 on human HDAC1 was 1 to 5 µM.

The compound `CNC(=O)CCCCC[C@H](OC(=O)C12CCN(CC1)CC2)c1ncc(-c2cc3ccccc3nc2OC)o1` [Entry 56] came in with a 50% effective concentration (EC50) in assay [1] of 1 to 5 µM. Further, on human HDAC1, the half-maximal inhibitory concentration (IC50) was less than 1 µM.

Take `CCN1CCCC(C(=O)N[C@@H](CCCCCC(=O)NC)c2ncc(-c3ccc4ccccc4c3)[nH]2)C1` (stereo partly drawn) [Entry 176, 1-ethyl-N-((S)-7-(methylamino)-1-(5-(naphthalen-2-yl)-1H-imidazol-2-yl)-7-oxo-heptyl)piperidine-3-carboxamide]: in assay [1], the concentration for a half-maximal effect (EC50) fell in the range of 1 to 5 µM. For the same compound, the IC50 on human HDAC1 is less than 1 µM.

`CNC(=O)CCCCC[C@H](NC(=O)c1cnc(C)s1)c1ncc(-c2ccc(-c3ccn(C)n3)cc2)o1` [Entry 225, (S)-2-methyl-N-(1-(5-(4-(1-methyl-1H-pyrazol-3-yl)phenyl)oxazol-2-yl)-7-(methylamino)-7-oxoheptyl)thiazole-5-carboxamide] yielded an EC50 in assay [1] of 1 to 5 µM. The IC50 at human HDAC1 was greater than 5 µM.

As to `CNC(=O)CCCCC[C@H](NC(=O)C(C)n1cccn1)c1ncc(-c2cc3ccccc3nc2OC)[nH]1` (stereo partly drawn) [Entry 103], the half-maximal effective concentration (EC50) in assay [1] was in the range of 1 to 5 µM. The IC50 at human HDAC1 was greater than 5 µM.

With `CNC(=O)CCCCC[C@H](NC(=O)Cc1c(C)[nH]c2ccc(OC)cc12)c1nnc(-c2ccc3ccccc3c2)o1` [Entry 200, (S)-7-(2-(5-methoxy-2-methyl-1H-indol-3-yl)acetamido)-N-methyl-7-(5-(naphthalen-2-yl)-1,3,4-oxadiazol-2-yl)heptanamide], the half-maximal effective concentration (EC50) in assay [1] fell in the range of 1 to 5 µM. The half-maximal inhibitory concentration (IC50) on human HDAC1 was less than 1 µM.

`CNC(=O)CCCCC[C@H](NC(=O)C1CCCO1)c1ncc(-c2cc3ccccc3nc2OC)[nH]1` (stereo partly drawn) [Entry 187, N-((S)-1-(5-(2-methoxyquinolin-3-yl)-1H-imidazol-2-yl)-7-(methylamino)-7-oxo-heptyl)tetra-hydrofuran-2-carboxamide]: the EC50 in assay [1] is greater than 5 µM. Further, on human HDAC1, the IC50 was greater than 5 µM.

The compound `CNC(=O)CCCCC[C@H](NC(=O)C12CCN(CC1)CC2)c1ncc(-c2ccc3cc(F)ccc3c2)[nH]1` [Entry 154, (S)-N-(1-(5-(6-fluoronaphthalen-2-yl)-1H-imidazol-2-yl)-7-(methylamino)-7-oxo-heptyl)quinuclidine-4-carboxamide] returned an EC50 in assay [1] of less than 1 µM. The IC50 on human HDAC1 was less than 1 µM.

For `CNC(=O)CCCCC[C@H](NC(=O)c1cncs1)c1ncc(-c2cnc3ccccc3c2)[nH]1` [Entry 36, (S)-N-(7-(methylamino)-7-oxo-1-(5-(quinolin-3-yl)-1H-imidazol-2-yl)heptyl)thiazole-5-carboxamide], the concentration for a half-maximal effect (EC50) in assay [1] is less than 1 µM. Also, the concentration for half-maximal inhibition (IC50) at human HDAC1 is 1 to 5 µM.

`CNC(=O)CCCCC[C@H](NC(=O)CCc1c(C)nc2ncnn2c1C)c1ncc(-c2ccc(-n3cccn3)cc2)[nH]1` [Entry 38, (S)-7-(5-(4-(1H-pyrazol-1-yl)phenyl)-1H-imidazol-2-yl)-7-(3-(5,7-dimethyl-[1,2,4]triazolo[1,5-a]pyrimidin-6-yl)propanamido)-N-methylheptanamide]: the EC50 in assay [1] lay in the range of 1 to 5 µM. Further, on human HDAC1, the IC50 fell in the range of 1 to 5 µM.
